Data reported in US20030195246A1, “Seamless soft capsule preparations containing dihydrobenzofuran derivatives” (priority 2000, published 2003).

Experiment: BO-653 stability test in different fats and oils (accelerated test, HPLC residue rate)
Format: physicochemical
Details: 80° C. for 17 hours
Procedure: A test was conducted on the effect of oxygen on decomposition of BO-653 (4,6-ditert-butyl-2,2-di-n-pentyl-5-hydroxy-2,3-dihydrobenzofuran) and its stability in various fats and oils. There were prepared samples consisting of 70 mg solutions of BO-653 in different fats and oils (soybean oil (product of Wako Pure Chemicals Industries, Ltd.), olive oil (product of Wako Pure Chemicals Industries, Ltd.), MCT (ODO-C: product of The Nisshin oil Mills, Ltd.), tricaprilin (product of Wako Pure Chemicals Industries, Ltd.) and linoleic acid (product of NOF Corp.)), each in a proportion of 50 wt % in a 5 cc glass vial, as well as a sample of 35 mg BO-653 in a 5 cc glass vial. An accelerated test was conducted at 80° C. for 17 hours, in a case with sealing of the head space of each sample vial after argon substitution and a case with sealing without argon substitution, and the residue rate was determined by HPLC measurement of the BO-653 content after the test.

- stability of BO-653 (no argon substitution (presence of oxygen), 50 wt % in soybean oil, compared with other fats and oils): highest stability
- residue rate (with argon substitution (absence of oxygen), any of the media, including BO-653 alone): virtually no reduction in residue rate
SMILES: CCCCCC1(CCCCC)Cc2c(cc(C(C)(C)C)c(O)c2C(C)(C)C)O1 [BO-653, 4,6-ditert-butyl-2,2-di-n-pentyl-5-hydroxy-2,3-dihydrobenzofuran]
- residue rate (no argon substitution (presence of oxygen), all of the samples): lower with no argon substitution than with argon substitution
